The target of one assay is T1, RORγt-LBD (Homo sapiens, UniProt P51449).
T1 sequence (P51449 269-508 limits assumed): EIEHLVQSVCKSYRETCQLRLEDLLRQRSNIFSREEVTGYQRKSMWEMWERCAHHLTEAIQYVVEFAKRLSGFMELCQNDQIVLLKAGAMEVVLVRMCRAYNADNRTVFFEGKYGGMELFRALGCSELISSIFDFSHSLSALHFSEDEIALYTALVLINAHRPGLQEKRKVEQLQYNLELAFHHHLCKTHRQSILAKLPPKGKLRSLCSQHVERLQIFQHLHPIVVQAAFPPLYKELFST
The assay can be described thus: Time-resolved fluorescence resonance energy-transfer assay (TR-FRET), co-activator peptide recruitment. It counts as biochemical. The following applies: for EC50: His-RORγt-LBD 30 nM, SRC peptide 500 nM, agonistic activity, averages of one or more measurements, read-out: TR-FRET Biochemical EC50/; for TR-FRET Biochemical Amax: upper activation limit, His-RORγt-LBD, SRC peptide. Also on record: TR-FRET Biochemical Amax: unit not given here. In outline:
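This agonist-mode TR-FRET used 30 nM His-tagged RORγt-LBD, 500 nM biotinylated SRC peptide, 0.25 nM Eu-anti-His and 5 nM APC-streptavidin in pH 7.0 Tris/KCl buffer with DTT and Triton. A 7-concentration, 5-fold compound series was incubated at 4 °C overnight plus 1 h at room temperature, and the 665/615 nm signal was read.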

The next assay has as its target T2, RORγt (Homo sapiens, UniProt P51449).
T2 construct: The plasmid of pFN26A-RORγt-LBD and pG14.35 (Promega, Cat. No. E1370) were co-transfected into HEK 293 cells; expressed in transfected cells; host or cells: HEK 293 cells (Cat. No. GNHu18)
T2 sequence (P51449 269-508 limits assumed): T1 sequence (P51449 269-508 limits assumed)
Kind of assay: RORγt cellular reporter gene detection assay.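 For Cellular Reporter Assay Amax: Ursolic Acid added as 5 µL of 20 µM medium per well.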 The format is cell-based. As to conditions: 24 hrs; for EC50: HEK 293 cells co-transfected with pFN26A-RORγt-LBD and pG14.35, in presence of antagonist Ursolic acid, top concentration 50 μM; for Cellular Reporter Assay Amax: upper activation limit, HEK 293 cells, in presence of antagonist Ursolic acid. In outline: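 Compounds, titrated 4-fold from a 50 μM top concentration, were added with Ursolic acid to HEK293 cells carrying a RORγt-LBD plasmid and a reporter plasmid. After 24 h at 37° C, dual firefly/Renilla luciferase readout; four-parameter curves gave EC50 and maximal activation (Amax).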

For `C/C(=C\c1ccc2c(c1)N(S(=O)(=O)c1cccc(C(F)(F)F)c1)C[C@@H]1CN(C(C)(C)C(=O)OC(C)(C)C)CCN21)c1c(F)cccc1Cl` [Example 53, tert-butyl (S,E)-2-(8-(2-(2-chloro-6-fluorophenyl)prop-1-en-1-yl)-6-((3-(trifluoromethyl)phe-nyl)sulfonyl)-1,2,4,4a,5,6-hexahydro-3H-pyrazino[1,2-a]qui-noxalin-3-yl)-2-methylpropanoate], on RORγt-LBD, the EC50 came to 256 nM and the “TR-FRET Biochemical Amax” value is 0.55. In addition, the EC50 at RORγt was at least 50000 nM.
As for `C/C(=C\c1ccc2c(c1)N(S(=O)(=O)c1cccc(C(F)(F)F)c1)C[C@@H]1CN(C3(C#N)CCC3)CCN21)c1c(F)cccc1Cl` [Example 76, (S,E)-1-(8-(2-(2-chloro-6-fluorophenyl)prop-1-en-1-yl)-6-((3-(trifluoromethyl)phenyl)sulfonyl)-1,2,4,4a,5,6-hexahydro-3H-pyrazino[1,2-a]quinoxalin-3-yl)cyclobutane-1-carbonitrile], on RORγt-LBD, the EC50 was 6.54 nM and the “TR-FRET Biochemical Amax” value was found to be 0.99. Besides, on RORγt, the EC50 stood at 1180 nM and the “Cellular Reporter Assay Amax” value turned out to be 3.2.
On the same counts, the results for `N#Cc1ccc(F)c(-c2ccc3c(c2)N(S(=O)(=O)c2cccc(C(F)(F)F)c2)C[C@@H]2CN(CC(=O)O)CCN32)c1` [Example 96, (S)-2-(8-(5-cyano-2-fluorophe-nyl)-6-((3-(trifluoromethyl)phe-nyl)sulfonyl)-1,2,4,4a,5,6-hexa-hydro-3H-pyrazino[1,2-a]quin-oxalin-3-yl)acetic acid] are 31.4 nM, 0.43, 2090 nM and 1.2.
In the case of `N#CCC(=O)N1CCN2c3ccc(/C=C/c4c(Cl)cccc4C(F)(F)F)cc3N(S(=O)(=O)c3cccc(C(F)(F)F)c3)C[C@@H]2C1` [Example 29, (S,E)-3-(8-(2-chloro-6-(tri-fluoromethyl)styryl)-6-((3-(trifluoromethyl)phenyl)sulfonyl)-1,2,4,4a,5,6-hexa-hydro-3H-pyrazino[1,2-a]quinoxalin-3-yl)-3-oxopro-panenitrile], on RORγt-LBD, the EC50 turned out to be 17.3 nM and the “TR-FRET Biochemical Amax” value is on record as 0.84. Further, on RORγt, the EC50 amounted to 1980 nM and the “Cellular Reporter Assay Amax” value was found to be 6.7.
On the same counts, the results for `CC(CO)(CO)N1CCN2c3ccc(-c4cc(F)cc(OC(F)F)c4)cc3N(S(=O)(=O)c3cccc(C(F)(F)F)c3)C[C@@H]2C1` [Example 72, (S)-2-(8-(3-(difluoromethoxy)-5-fluorophenyl)-6-((3-(trifluoro-methyl)phenyl)sulfonyl)-1,2,4,4a,5,6-hexahydro-3H-pyra-zino[1,2-a]quinoxalin-3-yl)-2-methylpropane-1,3-diol] are 42.3 nM, 0.65, 238 nM and 2.6.
In the case of `C/C(=C\c1ccc2c(c1)N(S(=O)(=O)c1cccc(C(F)(F)F)c1)C[C@@H]1CN(CC(=O)OC(C)C)CCN21)c1c(F)cccc1Cl` [Example 48, isopropyl (S,E)-2-(8-(2-(2-chloro-6-fluorophenyl)prop-1-en-1-yl)-6-((3-(trifluoromethyl)phe-nyl)sulfonyl)-1,2,4,4a,5,6-hexa-hydro-3H-pyrazino[1,2-a]quinox-alin-3-yl)acetate], on RORγt-LBD, the EC50 turned out to be 10.7 nM and the “TR-FRET Biochemical Amax” value is given as 0.67. On RORγt, the EC50 came out at 283 nM and the “Cellular Reporter Assay Amax” value is reported as 1.9.
The like results for `NC(=S)N1CCN2c3ccc(-c4cc(F)cc(OC(F)F)c4)cc3N(S(=O)(=O)c3cccc(C(F)(F)F)c3)C[C@@H]2C1` [Example 64, (S)-8-(3-(difluoromethoxy)-5-fluorophenyl)-6-((3-(trifluoro-methyl)phenyl)sulfonyl)-1,2,4,4a,5,6-hexahydro-3H-pyrazino [1,2-a]quinoxaline-3-carbo-thioamide] were, in that order, 47.8 nM, 0.80, 563 nM and 2.7.
In the case of `NC(=O)C1(N2CCN3c4ccc(-c5cc(F)cc(OC(F)F)c5)cc4N(S(=O)(=O)c4cccc(C(F)(F)F)c4)C[C@@H]3C2)CCC1` [Example 80, (S)-1-(8-(3-(difluoromethoxy)-5-fluorophenyl)-6-((3-(trifluoro-methyl)phenyl)sulfonyl)-1,2,4,4a,5,6-hexahydro-3H-pyrazino[1,2-a]quinoxalin-3-yl)cyclobutane-1-carboxamide], at RORγt-LBD, the EC50 was 39.3 nM and the “TR-FRET Biochemical Amax” value was determined as 1.04. At RORγt, the EC50 came out at 209 nM and the “Cellular Reporter Assay Amax” value was found to be 3.4.
The like results for `CC(=O)N1CCN2c3ccc(/C=C/c4c(Cl)cccc4C(F)(F)F)cc3N(S(=O)(=O)c3cccc(C(F)(F)F)c3)C[C@@H]2C1` [Example 14, (S,E)-1-(8-(2-chloro-6-(tri-fluoromethyl)styryl)-6-((3-(trifluoromethyl)phenyl)sul-fonyl)-1,2,4,4a,5,6-hexa-hydro-3H-pyrazino[1,2-a]quinoxalin-3-yl)ethan-1-one] were, in that order, 30.5 nM, 0.89, 69.7 nM and 3.1.
Turning to `O=S(=O)(c1cccc(C(F)(F)F)c1)N1C[C@@H]2CC(O)CCN2c2ccc(-c3cc(F)cc(OC(F)F)c3)cc21` (stereo partly drawn) [Example 105, (6aS)-3-(3-(difluoromethoxy)-5-fluorophenyl)-5-((3-(trifluoromethyl)phenyl)sulfonyl)-6,6a,7,8,9,10-hexahydro-5H-pyrido[1,2-a]quinoxalin-8-ol], at RORγt-LBD, the EC50 stood at 170 nM and the “TR-FRET Biochemical Amax” value amounted to 0.69. Also, on RORγt, the EC50 worked out at 955 nM and the “Cellular Reporter Assay Amax” value was 4.8.
On the same counts, the results for `CN1c2ccc(-c3cc(F)cc(OC(F)F)c3)cc2N(S(=O)(=O)c2cccc(C(F)(F)F)c2)C[C@@H]1CCC(=O)O` [Example 5, (S)-3-(6-(3-(difluorome-thoxy)-5-fluorophenyl)-1-methyl-4-((3-(trifluorometh-yl)phenyl)sulfonyl)-1,2,3,4-tetrahydroquinoxalin-2-yl)propanoic acid] are 9.68 nM, 1.39, 1030 nM and 5.0.
`COC(=O)CN1CCN2c3ccc(/C=C/c4c(Cl)cccc4C(F)(F)F)cc3N(S(=O)(=O)c3cccc(C(F)(F)F)c3)C[C@@H]2C1` [Example 45, methyl (S,E)-2-(8-(2-chloro-6-(trifluoromethyl)styryl)-6-((3-(trifluoromethyl)phenyl)sulfonyl)-1,2,4,4a,5,6-hexahydro-3H-pyrazino[1,2-a]quinoxalin-3-yl) acetate]: the EC50 on RORγt-LBD is 10.5 nM; on RORγt it was 375 nM.
`NC(=O)CN1CCN2c3ccc(/C=C/c4c(Cl)cccc4C(F)(F)F)cc3N(S(=O)(=O)c3cccc(C(F)(F)F)c3)C[C@@H]2C1` [Example 59, (S,E)-2-(8-(2-chloro-6-(trifluoromethyl)styryl)-6-((3-(trifluoromethyl)phenyl)sulfonyl)-1,2,4,4a,5,6-hexahydro-3H-pyrazino[1,2-a]quinoxalin-3-yl)acetamide]: on RORγt-LBD, the EC50 was 100 nM and the “TR-FRET Biochemical Amax” value came to 1.10. Also, on RORγt, the EC50 is 602 nM and the “Cellular Reporter Assay Amax” value was determined as 3.5.
On the same counts, the results for `CC1(C)C=C(c2ccc3c(c2)N(S(=O)(=O)c2cccc(C(F)(F)F)c2)C[C@@H]2CN(S(C)(=O)=O)CCN32)CC(C)(C)O1` [Example 19, (S)-3-(methylsulfonyl)-8-(2,2,6,6-tetramethyl-3,6-dihydro-2H-pyran-4-yl)-6-((3-(trifluorometh-yl)phenyl)sulfonyl)-2,3,4,4a,5,6-hexahydro-1H-pyrazino[1,2-a]quinoxaline] are 17.8 nM, 0.97, 25.7 nM and 2.0.
On the same counts, the results for `C/C(=C\c1ccc2c(c1)N(S(=O)(=O)c1cccc(C(F)(F)F)c1)C[C@@H]1CN(S(N)(=O)=O)CCN21)c1c(F)cccc1Cl` [Example 66, (R,E)-8-(2-(2-chloro-6-fluorophenyl)prop-1-en-1-yl)-6-((3-(trifluoromethyl)phenyl)sulfonyl)-1,2,4,4a,5,6-hexahydro-3H-pyrazino[1,2-a]quinoxaline-3-sulfonamide] are 33.6 nM, 0.99, 523 nM and 5.6.

The values above are taken from patent publication US20220009894A1, “1,2,3,4-TETRAHYDROQUINOXALINE DERIVATIVE, PREPARATION METHOD THEREFOR AND APPLICATION THEREOF” (Abbisko Therapeutics Co., Ltd., priority 2019, published 2022).
